This is an account of results in patent US20230116602A1, “MCL1 INHIBITORS AND USES THEREOF” (California Institute of Technology, priority 2019, published 2023).

Like-named read-outs stand apart in the source and are kept apart here.

As usually defined, the IC50 is the point on the concentration scale where inhibition reaches its midpoint. As usually defined, the Kd is the equilibrium constant for the complex coming apart.

The subject of assay [1] is drug-resistant cell lines of Table 3. As to the kind of experiment: Cell line growth retardation assay, resistant cohort. In kind it is cell-based, Human. As to conditions: arithmetic mean of IC50s over the resistant cohort of Table 3, 6 days growth, read-out: AvgRes IC50. In a few lines: (§1)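 Cell lines classed as MCL1-inhibition sensitive or resistant were seeded, rested 24 h, then exposed to 10–0.0032 μM compound for 6 days. Cells were counted by imaging; growth inhibition was the ratio of population doublings with vs without compound from a pre-treatment baseline. IC50 from curve fits, averaged per cohort.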

Assay [2] deals with MCL1 (Homo sapiens, UniProt Q07820). As to the kind of experiment: MCL1 affinity assay (competition binding, qPCR readout). As to conditions: recombinant MCL1, 11-point 3-fold dilution series. The method, boiled down:
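Competition binding: DNA-tagged recombinant protein (E. coli BL21-derived or HEK-293), biotinylated peptide ligand-loaded streptavidin beads and compound incubated 1 hour at room temperature, 0.9% DMSO final. Bound protein eluted with 0.5 μM non-biotinylated ligand and quantified by qPCR; Kd from 11-point 3-fold dilution series.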
(Real-time PCR tracks product formation cycle by cycle.)

Assay [3] has as its target BCL2 (Homo sapiens, UniProt P10415). As to the kind of experiment: BCL2 affinity assay (competition binding, qPCR readout). As to conditions: recombinant BCL2, 11-point 3-fold dilution series. The protocol:
(§2) Recombinant MCL1, BCL2 and BCXL proteins were prepared in either an E. coli host derived from the BL21 strain or in HEK-293 cells. The recombinant proteins were subsequently tagged with DNA for qPCR detection. Streptavidin-coated magnetic beads were treated for 30 minutes at room temperature with the respective biotinylated peptide ligands for each recombinant protein to generate affinity resins for the assays. The liganded beads were blocked with excess biotin and washed with blocking buffer (SeaBlock (Pierce), 1% BSA, 0.05% Tween 20, 1 mM DTT) to remove unbound ligand and to reduce nonspecific binding. Binding reactions were assembled by combining recombinant protein, liganded affinity beads, and test compounds in 1× binding buffer (20% SeaBlock, 0.17×PBS, 0.05% Tween 20, 6 mM DTT). Test compounds were prepared as 111X stocks in 100% DMSO. The compounds were then diluted directly into the assays such that the final concentration of DMSO was 0.9%. The assay plates were incubated at room temperature with shaking for 1 hour and the affinity beads were washed with wash buffer (1×PBS, 0.05% Tween 20). The beads were then re-suspended in elution buffer (1×PBS, 0.05% Tween 20, 0.5 μM non-biotinylated affinity ligand) and incubated at room temperature with shaking for 30 minutes. The recombinant protein concentration in the eluates was measured by qPCR. Kds were determined using an 11-point 3-fold compound dilution series with three DMSO control points.

Assay [4] addresses BCLXL (Homo sapiens, UniProt Q07817). The experiment in a line: BCLXL affinity assay (competition binding, qPCR readout). As to conditions: recombinant BCLXL, 11-point 3-fold dilution series. The protocol:
as §2

The test system of assay [5] is drug-sensitive cell lines of Table 3. The experiment in a line: Cell line growth retardation assay, sensitive cohort. The format is cell-based, Human. The settings on record: for IC50: arithmetic mean of IC50s over the sensitive cohort of Table 3, 6 days growth, read-out: AvgSen IC50; for Fold Diff: average IC50 of resistant cohort divided by average IC50 of sensitive cohort. In a few lines:
as §1

Chain of BCL2 (P10415 whole entry): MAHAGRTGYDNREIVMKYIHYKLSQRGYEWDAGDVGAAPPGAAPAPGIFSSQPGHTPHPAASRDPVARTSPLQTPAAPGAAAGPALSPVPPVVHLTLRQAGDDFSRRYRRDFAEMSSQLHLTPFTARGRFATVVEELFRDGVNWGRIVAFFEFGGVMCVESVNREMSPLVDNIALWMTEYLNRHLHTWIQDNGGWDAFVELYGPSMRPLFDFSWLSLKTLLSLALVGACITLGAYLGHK
Chain of BCLXL (Q07817 whole entry): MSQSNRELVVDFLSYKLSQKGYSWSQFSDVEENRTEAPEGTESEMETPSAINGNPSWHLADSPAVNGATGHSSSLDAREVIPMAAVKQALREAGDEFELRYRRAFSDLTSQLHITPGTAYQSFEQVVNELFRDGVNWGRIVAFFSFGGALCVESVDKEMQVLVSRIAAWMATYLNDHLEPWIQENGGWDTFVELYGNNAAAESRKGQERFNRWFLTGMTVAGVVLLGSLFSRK
Chain of MCL1 (Q07820 whole entry): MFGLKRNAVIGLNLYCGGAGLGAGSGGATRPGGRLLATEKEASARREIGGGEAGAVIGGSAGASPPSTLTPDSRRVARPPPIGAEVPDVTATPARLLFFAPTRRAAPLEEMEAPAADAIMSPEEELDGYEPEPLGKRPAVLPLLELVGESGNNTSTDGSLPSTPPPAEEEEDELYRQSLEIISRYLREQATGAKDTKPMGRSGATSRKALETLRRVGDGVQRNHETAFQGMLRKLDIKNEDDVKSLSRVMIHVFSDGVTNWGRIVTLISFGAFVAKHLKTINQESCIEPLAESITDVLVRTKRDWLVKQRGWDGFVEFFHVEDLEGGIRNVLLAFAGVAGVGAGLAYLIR

Consider `Cc1c(-c2c(C3CCC3)ncc3snc(O[C@H](Cc4ccccc4OCc4ccnn4CC(F)(F)F)C(=O)O)c23)ccc(OCCN2CCN(C)CC2)c1Cl` (atropisomer, axis not shown) [Compound 29], for which the IC50 in assay [1] (Homo sapiens, 144 h) was above 5000 nM; in assay [5] (Homo sapiens, 144 h) it was at most 1000 nM. The Kd is at most 100 nM in assay [2], above 1500 nM in assay [3] and above 1500 nM in assay [4]. Further, the “Fold Diff” value in assay [5] is “+ (“+” represents a fold difference of 10 or more)”.

As for `Cc1c(-c2c(C3CC3)ncc3snc(O[C@H](Cc4ccccc4OCc4ccnn4CC(F)(F)F)C(=O)O)c23)ccc(OCCN2CCN(C)CC2)c1Cl` (atropisomer, axis not shown) [Compound 30], the IC50 in assay [1] (Homo sapiens, 144 h) was above 5000 nM; in assay [5] (Homo sapiens, 144 h), 1000 to 5000 nM. Also, the figures for the Kd in assay [2], in assay [3] and in assay [4] were at most 100 nM, above 1500 nM and above 1500 nM, respectively. The “Fold Diff” value in assay [5] is “− (“−” represents a fold difference less than 10)”.

In the case of `COc1cccc(-c2ncc3snc(O[C@H](Cc4ccccc4OCc4ccnc(-c5ccccc5OC)n4)C(=O)O)c3c2-c2ccc(O)c(Cl)c2C)c1` (atropisomer, axis not shown) [Compound 41], the IC50 in assay [1] (Homo sapiens, 144 h) is above 5000 nM; in assay [5] (Homo sapiens, 144 h) it was 1000 to 5000 nM. Further, the figures for the Kd in assay [2], in assay [3] and in assay [4] were at most 100 nM, above 1500 nM and above 1500 nM, respectively. Moreover, the “Fold Diff” value in assay [5] is recorded as “− (“−” represents a fold difference less than 10)”.

In the case of `COc1cccc(-c2ncc3snc(O[C@H](Cc4ccccc4OCc4ccnc(-c5ccccc5OC)n4)C(=O)O)c3c2-c2ccc(OCCN3CCCCC3)c(Cl)c2C)c1` (atropisomer, axis not shown) [Compound 43], the IC50 in assay [1] (Homo sapiens, 144 h) is above 5000 nM; in assay [5] (Homo sapiens, 144 h), 1000 to 5000 nM. Besides, the results for the Kd in assay [2], in assay [3] and in assay [4] were at most 100 nM, above 1500 nM and above 1500 nM, respectively. Further, in assay [5], the “Fold Diff” value was “− (“−” represents a fold difference less than 10)”.

With `COCCOc1ccc(-c2c(-c3cccc(OC)c3)ncc3snc(O[C@H](Cc4ccccc4OCc4ccnc(-c5ccccc5OC)n4)C(=O)O)c23)c(C)c1Cl` (atropisomer, axis not shown) [Compound 44], the IC50 in assay [1] (Homo sapiens, 144 h) was above 5000 nM; in assay [5] (Homo sapiens, 144 h), above 5000 nM. In addition, the results for the Kd in assay [2], in assay [3] and in assay [4] were at most 100 nM, above 1500 nM and above 1500 nM, respectively. Besides, the “Fold Diff” value in assay [5] is given as “− (“−” represents a fold difference less than 10)”.

As for `COc1cccc(-c2ncc3snc(O[C@H](Cc4ccccc4OCc4ccnc(-c5ccccc5OC)n4)C(=O)O)c3c2-c2ccc(OCCC3CCN(C)CC3)c(Cl)c2C)c1` (atropisomer, axis not shown) [Compound 45], the IC50 in assay [1] (Homo sapiens, 144 h) was above 5000 nM; in assay [5] (Homo sapiens, 144 h), 1000 to 5000 nM. The Kd in assay [2] was at most 100 nM; in assay [3], above 1500 nM; in assay [4], above 1500 nM. For the same molecule, the “Fold Diff” value in assay [5] was “− (“−” represents a fold difference less than 10)”.

As to `COc1cccc(-c2ncc3snc(O[C@H](Cc4ccccc4OCc4ccnc(-c5ccccc5OC)n4)C(=O)O)c3c2-c2ccc(OCCN(C)C)c(Cl)c2C)c1` (atropisomer, axis not shown) [Compound 46], the IC50 was above 5000 nM in assay [1] (Homo sapiens, 144 h) and at most 1000 nM in assay [5] (Homo sapiens, 144 h). Besides, the results for the Kd in assay [2], in assay [3] and in assay [4] were at most 100 nM, above 1500 nM and above 1500 nM, respectively. Further, in assay [5], the “Fold Diff” value is given as “+ (“+” represents a fold difference of 10 or more)”.

On to `COc1cccc(-c2ncc3snc(O[C@H](Cc4ccccc4OCc4ccnc(-c5ccccc5OC)n4)C(=O)O)c3c2-c2ccc(OCCCN(C)C)c(Cl)c2C)c1` (atropisomer, axis not shown) [Compound 47], for which the IC50 in assay [1] (Homo sapiens, 144 h) is above 5000 nM; in assay [5] (Homo sapiens, 144 h), at most 1000 nM. In addition, the values for the Kd in assay [2], in assay [3] and in assay [4] were at most 100 nM, above 1500 nM and above 1500 nM, respectively. For the same molecule, the “Fold Diff” value in assay [5] is “+ (“+” represents a fold difference of 10 or more)”.

Take `COc1cccc(-c2ncc3snc(O[C@H](Cc4ccccc4OCc4ccnc(-c5ccccc5OC)n4)C(=O)O)c3c2-c2ccc(OC[C@@H]3CCCN3C)c(Cl)c2C)c1` (atropisomer, axis not shown) [Compound 49]: the results for the IC50 in assay [1] and in assay [5] were above 5000 nM and 1000 to 5000 nM, respectively. Moreover, the Kd in assay [2] is at most 100 nM; in assay [3] it was above 1500 nM; in assay [4], above 1500 nM. The “Fold Diff” value in assay [5] is listed as “− (“−” represents a fold difference less than 10)”.

Turning to `COc1cccc(-c2ncc3snc(O[C@H](Cc4ccccc4OCc4ccnc(-c5ccccc5OC)n4)C(=O)O)c3c2-c2ccc(OCCN3CCCC3)c(Cl)c2C)c1` (atropisomer, axis not shown) [Compound 50], the IC50 in assay [1] (Homo sapiens, 144 h) was above 5000 nM; in assay [5] (Homo sapiens, 144 h), at most 1000 nM. Also, the results for the Kd in assay [2], in assay [3] and in assay [4] were at most 100 nM, above 1500 nM and above 1500 nM, respectively. Further, the “Fold Diff” value in assay [5] is listed as “+ (“+” represents a fold difference of 10 or more)”.

With `COc1cccc(-c2ncc3snc(O[C@H](Cc4ccccc4OCc4ccnc(-c5ccccc5OC)n4)C(=O)O)c3c2-c2ccc(OC)c(Cl)c2C)c1` (atropisomer, axis not shown) [Compound 51], the concentration for half-maximal inhibition (IC50) in assay [1] (Homo sapiens, 144 h) was above 5000 nM; in assay [5] (Homo sapiens, 144 h), 1000 to 5000 nM. The Kd in assay [2] was at most 100 nM; in assay [3] it was above 1500 nM; in assay [4] it was above 1500 nM. Also, the “Fold Diff” value in assay [5] was “− (“−” represents a fold difference less than 10)”.

With `Cc1c(-c2c(-c3ccccn3)ncc3snc(O[C@H](Cc4ccccc4OCc4ccnn4CC(F)(F)F)C(=O)O)c23)ccc(OCCN2CCN(C)CC2)c1Cl` (atropisomer, axis not shown) [Compound 52], the IC50 is above 5000 nM in assay [1] (Homo sapiens, 144 h) and above 5000 nM in assay [5] (Homo sapiens, 144 h). Moreover, the Kd in assay [2] was 501 to 1500 nM; in assay [3], above 1500 nM; in assay [4], above 1500 nM. For the same molecule, in assay [5], the “Fold Diff” value is recorded as “− (“−” represents a fold difference less than 10)”.

With `COc1ccccc1-c1nccc(COc2ccccc2C[C@@H](Oc2nsc3cnc(-c4ccccn4)c(-c4ccc(OCCN5CCN(C)CC5)c(Cl)c4C)c23)C(=O)O)n1` (atropisomer, axis not shown) [Compound 53], the IC50 in assay [1] (Homo sapiens, 144 h) was above 5000 nM; in assay [5] (Homo sapiens, 144 h), above 5000 nM. For the same molecule, the Kd is at most 100 nM in assay [2], above 1500 nM in assay [3] and above 1500 nM in assay [4]. In assay [5], the “Fold Diff” value is given as “− (“−” represents a fold difference less than 10)”.

Take `COc1ccccc1-c1nccc(COc2ccccc2C[C@@H](Oc2nsc3cnc(C4=CCOCC4)c(-c4ccc(OCCN5CCN(C)CC5)c(Cl)c4C)c23)C(=O)O)n1` (atropisomer, axis not shown) [Compound 54]: the IC50 in assay [1] (Homo sapiens, 144 h) is above 5000 nM; in assay [5] (Homo sapiens, 144 h) it was 1000 to 5000 nM. Moreover, the Kd in assay [2] was at most 100 nM; in assay [3], above 1500 nM; in assay [4], above 1500 nM. Also, in assay [5], the “Fold Diff” value is reported as “− (“−” represents a fold difference less than 10)”.

With `COc1cc(-c2nccc(COc3ccccc3C[C@@H](Oc3nsc4cnc(-c5cccc(F)c5)c(-c5ccc(OCCN6CCN(C)CC6)c(Cl)c5C)c34)C(=O)O)n2)ccn1` (atropisomer, axis not shown) [Compound 71], the IC50 in assay [1] (Homo sapiens, 144 h) is above 5000 nM; in assay [5] (Homo sapiens, 144 h), at most 1000 nM. The figures for the Kd in assay [2], in assay [3] and in assay [4] were 101 to 500 nM, above 1500 nM and above 1500 nM, respectively. Moreover, the “Fold Diff” value in assay [5] was “+ (“+” represents a fold difference of 10 or more)”.

On to `Cc1c(-c2c(-c3cccc(F)c3)ncc3snc(O[C@H](Cc4ccccc4OCc4ccnc(-c5ccncc5)n4)C(=O)O)c23)ccc(OCCN2CCN(C)CC2)c1Cl` (atropisomer, axis not shown) [Compound 72], for which the IC50 in assay [1] (Homo sapiens, 144 h) is above 5000 nM; in assay [5] (Homo sapiens, 144 h) it was at most 1000 nM. Further, the Kd was at most 100 nM in assay [2], above 1500 nM in assay [3] and above 1500 nM in assay [4]. Moreover, the “Fold Diff” value in assay [5] is “+ (“+” represents a fold difference of 10 or more)”.
